These results are taken from patent publication US10968203B2, “Pyrimidinyl-pyridyloxy-naphthyl compounds and methods of treating IRE1-related diseases and disorders” (Genentech, Inc., priority 2017, dated 2021).

Structures can show the parent of a compound that is named as a salt. Where two headings read alike, the source gives them in different places.

The subject of this assay is XBP1s-luc 293 LUC. In words: cellular PD assay, XBP1s-LUC reporter (Example 903). The class given is cell-based. Particulars: read-out: XBP1s-luc 293 LUC (IC50). The gist of the method: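 A luciferase fusion, in frame and expressed only when the XBP1 transcript is spliced, served as the readout of cellular IRE1α activity in an XBP1-Luc reporter line.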

The term IC50 denotes the point on the concentration scale where inhibition reaches its midpoint. Turning to `Cc1ccc2c(NS(=O)(=O)CCC(F)F)c(F)ccc2c1Oc1ncccc1-c1ccnc(N[C@H]2CCCNC2)n1` [Example 398, (S)-3,3-Difluoro-N-(2-fluoro-6-methyl-5-((3-(2-(piperidin-3-ylamino)pyrimidin-4-yl)pyridin-2-yl)oxy)naphthalen-1-yl)propane-1-sulfonamide hydrochloride], the IC50 (Table 2) was found to be 0.022 µM. Consider `Cc1ccc2c(NC[C@@H]3CCOC3)cccc2c1Oc1ncccc1-c1ccnc(N[C@H]2CCCNC2)n1` (single isomer, unassigned) [Example 351], for which the half-maximal inhibitory concentration (IC50) (Table 1) came to 0.5 µM. Turning to `Cc1nc(CNc2cccc3c(Oc4ncccc4-c4ccnc(N[C@H]5CCCNC5)n4)c(C)ccc23)cs1` [Example 244, (S)-4-(2-((2-Methyl-5-(((2-methylthiazol-4-yl)methyl)amino)naphthalen-1-yl)oxy)pyridin-3-yl)-N-(piperidin-3-yl)pyrimidin-2-amine], under “Table 1”, the IC50 was 0.012 µM.

Consider `CC[C@@H]1CCN(c2cccc3c(Oc4ncccc4-c4ccnc(N[C@@H]5CNC[C@H](C)C5)n4)c(C)ccc23)C1=O` (single isomer, unassigned) [Example 331], for which the IC50 (Table 1) worked out at 0.0579 µM.

Turning to `CCN(C)S(=O)(=O)Nc1c(F)ccc2c(Oc3ncccc3-c3ccnc(N[C@H]4CCCNC4)n3)c(C)ccc12` [Example 421, 4-[2-[[5-[[Ethyl(methyl)sulfamoyl]amino]-6-fluoro-2-methyl-1-naphthyl]oxy]-3-pyridyl]-2-[[(3S)-3-piperidyl]amino]pyrimidine hydrochloride], the half-inhibitory concentration (IC50) (Table 2) turned out to be 0.044 µM.

With `CCC(F)(F)CS(=O)(=O)Nc1c(F)ccc2c(Oc3ncccc3-c3ccnc(N[C@@H]4CNC[C@@H](F)C4)n3)c(C)ccc12` (single isomer, unassigned) [Example 496, hydrochloride], the IC50 (Table 2) was found to be 0.0179 µM.

On to `Cc1ccc2c(N3CCC4(CC4)C3=O)cccc2c1Oc1ncccc1-c1ccnc(N[C@H]2CCCNC2)n1` [Example 297, (S)-5-(6-Methyl-5-((3-(2-(piperidin-3-ylamino)pyrimidin-4-yl)pyridin-2-yl)oxy)naphthalen-1-yl)-5-azaspiro[2.4]heptan-4-one], for which the IC50 (Table 1) worked out at 0.173 µM. Take `Cc1ccc2c(NC(=O)[C@@H]3CCCC3C)cccc2c1Oc1ncccc1-c1ccnc(N[C@H]2CCCNC2)n1` (single isomer, unassigned) [Example 373]: the IC50 (Table 1) came out at 0.193 µM.

In the case of `Cc1ccc2c(NC(=O)c3ccc4ccccc4c3)cccc2c1Oc1ncccc1-c1ccnc(N[C@H]2CCCNC2)n1` [Example 174, (S)—N-(6-Methyl-5-((3-(2-(piperidin-3-ylamino)pyrimidin-4-yl)pyridin-2-yl)oxy)naphthalen-1-yl)-2-naphthamide], for the setting “Table 1”, the IC50 was found to be 0.278 µM. The same measure, in the same setting: next, `Cc1ccc2c(NC(=O)[C@H]3C[C@H]3F)cccc2c1Oc1ncccc1-c1ccnc(N[C@H]2CCCNC2)n1` [Example 222, (1R,2R)-2-Fluoro-N-[6-methyl-5-[[3-[2-[[(3S)-3-piperidyl]amino]pyrimidin-4-yl]-2-pyridyl]oxy]-1-naphthyl]cyclopropanecarboxamide]: 0.093 µM; `Cc1ccc2c(-n3nccc3C)cccc2c1Oc1ccccc1-c1ccnc(N[C@H]2CCCNC2)n1` [Example 246, (S)-4-(2-((2-Methyl-5-(5-methyl-1H-pyrazol-1-yl)naphthalen-1-yl)oxy)phenyl)-N-(piperidin-3-yl)pyrimidin-2-amine]: 0.235 µM. As for `Cc1ccc2c(N[C@H]3CCCC[C@@H]3O)cccc2c1Oc1ncccc1-c1ccnc(N[C@H]2CCCNC2)n1` (single isomer, unassigned) [Example 447, hydrochloride], for the setting “Table 2”, the IC50 was 0.146 µM. Same read-out and setting: under `Cc1ccc2c(NC[C@H](O)C(F)(F)F)cccc2c1Oc1ncccc1-c1ccnc(N[C@@H]2CNC[C@@H](F)C2)n1` (single isomer, unassigned) [Example 469, hydrochloride] stands 0.005 µM. For `Cc1cc(NS(=O)(=O)C2CCCC2)c2ccccc2c1Oc1ncccc1-c1ccnc(N[C@H]2CC[C@H](N)CC2)n1` [Example 119, N-(4-((3-(2-(((trans)-4-aminocyclohexyl)amino)pyrimidin-4-yl)pyridin-2-yl)oxy)-3-methylnaphthalen-1-yl)cyclopentanesulfonamide hydrochloride], where the note is “Table 1”, the half-maximal inhibitory concentration (IC50) is 0.312 µM. For `CCCS(=O)(=O)Nc1cccc2c(Oc3ncccc3-c3ccnc(N[C@@H]4CNC[C@H](C)C4)n3)c(C)ccc12` [Example 361, N-(6-Methyl-5-((3-(2-(((3S,5R)-5-methylpiperidin-3-yl)amino)pyrimidin-4-yl)pyridin-2-yl)oxy)naphthalen-1-yl)propane-1-sulfonamide], under “Table 1”, the half-maximal inhibitory concentration (IC50) was determined as 0.0851 µM. Consider `Cc1ccc2c(NS(=O)(=O)CC3CC3(F)F)c(F)ccc2c1Oc1ncccc1-c1ccnc(N[C@H]2CCCNC2)n1` (mixture of isomers) [Example 467, 1-(2,2-Difluorocyclopropyl)-N-(2-fluoro-6-methyl-5-((3-(2-((S)-piperidin-3-ylamino)pyrimidin-4-yl)pyridin-2-yl)oxy)naphthalen-1-yl)methanesulfonamide hydrochloride], for which the IC50 (Table 2) is 0.042 µM. On to `Cc1ccc2c(Oc3ccccn3)cccc2c1Oc1ncccc1-c1ccnc(N[C@H]2CCCNC2)n1` [Example 239, (S)-4-(2-((2-Methyl-5-(pyridin-2-yloxy)naphthalen-1-yl)oxy)pyridin-3-yl)-N-(piperidin-3-yl)pyrimidin-2-amine], for which the IC50 (Table 1) was 0.245 µM. Still for that read-out and setting: under `Cc1ccc2c(NC(=O)C3CCCC3)cccc2c1Oc1ncccc1-c1ccnc(N[C@H]2CCCNC2)n1` [Example 187, (S)—N-(6-Methyl-5-((3-(2-(piperidin-3-ylamino)pyrimidin-4-yl)pyridin-2-yl)oxy)naphthalen-1-yl)cyclopentanecarboxamide] stands 0.157 µM; under `Cc1ccc2c(NS(=O)(=O)Cc3ccc(F)cc3F)cccc2c1Oc1ncccc1-c1ccnc(N[C@H]2CCCNC2)n1` [Example 157, (S)-1-(2,4-Difluorophenyl)-N-(6-methyl-5-((3-(2-(piperidin-3-ylamino)pyrimidin-4-yl)pyridin-2-yl)oxy)naphthalen-1-yl)methanesulfonamide], 0.008 µM; under `Cc1ccc2c(NCC3CC3(F)F)cccc2c1Oc1ncccc1-c1ccnc(N[C@H]2CCCNC2)n1` (mixture of isomers) [Example 341, 4-(2-((5-(((2,2-Difluorocyclopropyl)methyl)amino)-2-methylnaphthalen-1-yl)oxy)pyridin-3-yl)-N—((S)-piperidin-3-yl)pyrimidin-2-amine], 0.118 µM.

Regarding `Cc1ccc2c(NS(=O)(=O)Cc3ccc(C#N)cc3)c(F)ccc2c1Oc1ncccc1-c1ccnc(N[C@@H]2CNC[C@@H](F)C2)n1` (single isomer, unassigned) [Example 484, hydrochloride], the IC50 (Table 2) came out at 0.005 µM. As for `Cc1ccc2c(NC[C@H](O)c3ccccc3)cccc2c1Oc1ncccc1-c1ccnc(N[C@H]2CCCNC2)n1` [Example 309, (R)-2-((6-Methyl-5-((3-(2-((S)-piperidin-3-ylamino)pyrimidin-4-yl)pyridin-2-yl)oxy)naphthalen-1-yl)amino)-1-phenylethanol], the IC50 (Table 1) was determined as 0.433 µM.

In the case of `Cc1ccc2c(Nc3ccn(C)n3)c(F)ccc2c1Oc1ncccc1-c1ccnc(N[C@H]2CCCNC2)n1` [Example 359, (S)-4-(2-((6-Fluoro-2-methyl-5-((1-methyl-1H-pyrazol-3-yl)amino)naphthalen-1-yl)oxy)pyridin-3-yl)-N-(piperidin-3-yl)pyrimidin-2-amine], for the setting “Table 1”, the 50% inhibitory concentration (IC50) was found to be 0.438 µM. The same measure, in the same setting: next, `Cc1ccc2c(NCCCF)cccc2c1Oc1ncccc1-c1ccnc(N[C@H]2CCCNC2)n1` [Example 241, (S)-4-(2-((5-((3-Fluoropropyl)amino)-2-methylnaphthalen-1-yl)oxy)pyridin-3-yl)-N-(piperidin-3-yl)pyrimidin-2-amine]: 0.141 µM; `Cc1ccc2c(NS(=O)(=O)CC(C)C)c(F)ccc2c1Oc1ncccc1-c1ccnc(N[C@H]2CCCNC2)n1` [Example 279, (S)—N-(2-Fluoro-6-methyl-5-((3-(2-(piperidin-3-ylamino)pyrimidin-4-yl)pyridin-2-yl)oxy)naphthalen-1-yl)-2-methylpropane-1-sulfonamide]: 0.0247 µM; `Cc1ccc2c(NC(=O)[C@H]3CCC(C)C3)cccc2c1Oc1ncccc1-c1ccnc(N[C@H]2CCCNC2)n1` (single isomer, unassigned) [Example 278]: 0.313 µM. As to `Cc1ccc2c(NC(=O)[C@@H]3CC3(C)C)cccc2c1Oc1ncccc1-c1ccnc(N[C@H]2CCCNC2)n1` (single isomer, unassigned) [Example 287], where the note is “Table 1”, the IC50 turned out to be 0.0394 µM. As to `Cc1ccc2c(NS(=O)(=O)Cc3ccc(C(F)F)cc3)cccc2c1Oc1ncccc1-c1ccnc(N[C@H]2CCCNC2)n1` [Example 160, (S)-1-(4-(Difluoromethyl)phenyl)-N-(6-methyl-5-((3-(2-(piperidin-3-ylamino)pyrimidin-4-yl)pyridin-2-yl)oxy)naphthalen-1-yl)methanesulfonamide], the IC50 (Table 1) stood at 0.013 µM. Consider `CCCS(=O)(=O)Nc1cccc2c(Oc3ncccc3-c3ccnc(N[C@@H]4CNC[C@@H](F)C4)n3)c(C)ccc12` [Example 165, N-(5-((3-(2-(((3S,5S)-5-Fluoropiperidin-3-yl)amino)pyrimidin-4-yl)pyridin-2-yl)oxy)-6-methylnaphthalen-1-yl)propane-1-sulfonamide], for which the IC50 (Table 1) was found to be 0.164 µM. Turning to `CCC1CCC(=O)N1c1cccc2c(Oc3ncccc3-c3ccnc(N[C@H]4CCCNC4)n3)c(C)ccc12` (single isomer, unassigned) [Example 357], the IC50 (Table 1) came out at 0.26 µM.

On to `Cc1ccn(-c2cccc3c(Oc4ncccc4-c4ccnc(N[C@H]5CCCNC5)n4)c(C)ccc23)n1` [Example 250, (S)-4-(2-((2-methyl-5-(3-methyl-1H-pyrazol-1-yl)naphthalen-1-yl)oxy)pyridin-3-yl)-N-(piperidin-3-yl)pyrimidin-2-amine], for which, under “Table 1”, the IC50 came to 0.258 µM. Still for that read-out and setting: under `Cc1ccc2c(NS(=O)(=O)CC3CCC3)cccc2c1Oc1ncccc1-c1ccnc(N[C@H]2CCCNC2)n1` [Example 127, (S)-1-Cyclobutyl-N-(6-methyl-5-((3-(2-(piperidin-3-ylamino)pyrimidin-4-yl)pyridin-2-yl)oxy)naphthalen-1-yl)methanesulfonamide] stands 0.233 µM.
